According to ChEMBL document CHEMBL1201862, “PubChem BioAssay data set” (2004):
Active and inactive are the calls of the source.

Columns and labels:
[1] = target: T1, Leucine aminopeptidase (Plasmodium falciparum 3D7, UniProt Q8IL11); assay: P. falciparum M17LAP inhibitors, primary screen, biochemical, fluorogenic H-Leu-NHMec substrate, 1536-well (AID 1619); type: functional
T1 sequence (Q8IL11 whole entry): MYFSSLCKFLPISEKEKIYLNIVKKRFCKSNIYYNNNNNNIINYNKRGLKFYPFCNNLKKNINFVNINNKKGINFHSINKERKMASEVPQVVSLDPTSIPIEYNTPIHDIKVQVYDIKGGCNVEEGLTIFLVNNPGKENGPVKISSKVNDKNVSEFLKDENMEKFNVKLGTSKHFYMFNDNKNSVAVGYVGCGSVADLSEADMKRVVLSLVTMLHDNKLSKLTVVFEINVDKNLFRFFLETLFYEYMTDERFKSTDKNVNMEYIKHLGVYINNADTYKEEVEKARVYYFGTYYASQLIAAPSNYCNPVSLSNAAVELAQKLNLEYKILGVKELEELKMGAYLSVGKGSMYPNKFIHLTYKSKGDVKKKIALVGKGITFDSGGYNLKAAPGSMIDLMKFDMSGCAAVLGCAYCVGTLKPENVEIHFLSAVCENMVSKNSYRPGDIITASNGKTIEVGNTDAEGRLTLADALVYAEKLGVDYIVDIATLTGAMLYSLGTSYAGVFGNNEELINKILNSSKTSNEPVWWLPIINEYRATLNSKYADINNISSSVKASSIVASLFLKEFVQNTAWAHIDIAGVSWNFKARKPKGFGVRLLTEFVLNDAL

[2] = target: Large T antigen (Simian virus 40, UniProt P03070); type: functional, Betapolyomavirus macacae;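 further: Confirmatory-stage PubChem screen for compounds that inhibit SV40 T antigen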
[3] = target: T2, Polyadenylate-binding protein 1 (Homo sapiens, UniProt P11940); assay: MLLE binding blockers, Cy5 peptide tracer – biochemical, fluorescence polarization, Cy5-PAM2 peptide, secondary, miRNA deadenylation inhibitor project, dose response (AID 602260); type: functional; conditions: read-out: IC50_Mean
[4] = Luminescence Cell-Based Dose Confirmation HTS to Identify Activators of 5'UTR Stem-Loop Driven Alpha-Synuclein mRNA Translation in H4 Neuroglioblastoma Cells. [Related pubchem assays: 1829 (Project Summary), 1814 (Primary HTS)]; type: functional
[5] = Luminescence Cell-Based Dose Response HTS to Identify Activators of Luciferase Translation or Activity in H4 […] Cells. [Related pubchem assays: 1829 (Project Summary), 1814 (Primary HTS)]; type: functional
[6] = target: T2, Polyadenylate-binding protein 1; assay: MLLE domain peptide-binding blockers, IC50 – biochemical, fluorescence polarization, FITC-PAM2 peptide, dose response (AID 602259); type: functional; conditions: read-out: IC50_Mean
[7] = system: H4; assay: Luminescence Cell-Based Dose Response HTS to Identify Activators of 5'UTR Stem-Loop Driven Prion Protein mRNA Translation in H4 Neuroglioblastoma Cells. [Related pubchem assays: 1829 (Project Summary), 1814 (Primary HTS)]; type: functional; conditions: Homo sapiens
[8] = target: Induced myeloid leukemia cell differentiation protein Mcl-1 (Homo sapiens, UniProt Q07820); type: functional
[9] = target: Glyceraldehyde-3-phosphate dehydrogenase (Homo sapiens, UniProt P04406)
[10] = viability of HCT116 lacking mutant beta-catenin – cell-based, human colon tumor, dose response (AID 1045); type: functional;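 further: HCT116 colon tumor cells with beta catenin knocked out; cells exposed to compound for 60 hours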
[11] = target: T3, RNA-binding protein pos-1 (Caenorhabditis elegans, UniProt G5EF15); assay: disruptors of C. elegans POS-1 RNA interaction – biochemical, fluorescence polarization, dose response (AID 1964);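 further: purified POS-1 fused to maltose binding protein made in E. coli; potency of compounds blocking POS-1 binding to fluorescent RNA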
T3 sequence (G5EF15 whole entry): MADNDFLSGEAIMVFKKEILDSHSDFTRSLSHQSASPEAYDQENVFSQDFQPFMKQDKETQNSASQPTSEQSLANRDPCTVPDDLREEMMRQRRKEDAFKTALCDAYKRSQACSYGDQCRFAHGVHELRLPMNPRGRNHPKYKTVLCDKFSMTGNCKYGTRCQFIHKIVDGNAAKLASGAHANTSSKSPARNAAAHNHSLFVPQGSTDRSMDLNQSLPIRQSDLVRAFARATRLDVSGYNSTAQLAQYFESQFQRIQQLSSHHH

[12] = target: Cytochrome P450 2C19 (Homo sapiens, UniProt P33261); assay: Cytochrome panel assay with activity outcomes. Panel member name: p450-cyp2c19 Compounds with AC50 equal or less than 10 uM are considered active; type: functional; conditions: read-out: AC50
[13] = target: T4, Zinc finger protein mex-5 (Caenorhabditis elegans, UniProt Q9XUB2); assay: potency of MEX-5 RNA-binding blockers – biochemical, C. elegans, fluorescence polarization, dose response (AID 1960)
T4 sequence (Q9XUB2 whole entry): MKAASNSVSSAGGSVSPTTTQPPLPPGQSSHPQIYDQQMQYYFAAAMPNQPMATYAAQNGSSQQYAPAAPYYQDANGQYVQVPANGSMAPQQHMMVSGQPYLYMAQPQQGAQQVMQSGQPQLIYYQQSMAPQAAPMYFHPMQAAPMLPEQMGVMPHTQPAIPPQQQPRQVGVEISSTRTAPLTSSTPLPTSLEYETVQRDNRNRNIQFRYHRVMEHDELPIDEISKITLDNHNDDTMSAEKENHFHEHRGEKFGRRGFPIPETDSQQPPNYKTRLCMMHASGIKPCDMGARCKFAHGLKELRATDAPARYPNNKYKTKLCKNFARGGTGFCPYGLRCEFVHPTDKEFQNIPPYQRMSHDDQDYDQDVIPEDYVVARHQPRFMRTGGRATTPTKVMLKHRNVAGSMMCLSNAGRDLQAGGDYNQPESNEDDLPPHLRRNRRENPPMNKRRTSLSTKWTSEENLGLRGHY

[14] = target: T5, Replicative DNA helicase DnaB (Mycobacterium tuberculosis, UniProt P9WMR3); assay: DnaB intein splicing inhibitors, dose response, biochemical, cell-free fluorescence (AID 449749); type: functional
T5 sequence (P9WMR3 whole entry): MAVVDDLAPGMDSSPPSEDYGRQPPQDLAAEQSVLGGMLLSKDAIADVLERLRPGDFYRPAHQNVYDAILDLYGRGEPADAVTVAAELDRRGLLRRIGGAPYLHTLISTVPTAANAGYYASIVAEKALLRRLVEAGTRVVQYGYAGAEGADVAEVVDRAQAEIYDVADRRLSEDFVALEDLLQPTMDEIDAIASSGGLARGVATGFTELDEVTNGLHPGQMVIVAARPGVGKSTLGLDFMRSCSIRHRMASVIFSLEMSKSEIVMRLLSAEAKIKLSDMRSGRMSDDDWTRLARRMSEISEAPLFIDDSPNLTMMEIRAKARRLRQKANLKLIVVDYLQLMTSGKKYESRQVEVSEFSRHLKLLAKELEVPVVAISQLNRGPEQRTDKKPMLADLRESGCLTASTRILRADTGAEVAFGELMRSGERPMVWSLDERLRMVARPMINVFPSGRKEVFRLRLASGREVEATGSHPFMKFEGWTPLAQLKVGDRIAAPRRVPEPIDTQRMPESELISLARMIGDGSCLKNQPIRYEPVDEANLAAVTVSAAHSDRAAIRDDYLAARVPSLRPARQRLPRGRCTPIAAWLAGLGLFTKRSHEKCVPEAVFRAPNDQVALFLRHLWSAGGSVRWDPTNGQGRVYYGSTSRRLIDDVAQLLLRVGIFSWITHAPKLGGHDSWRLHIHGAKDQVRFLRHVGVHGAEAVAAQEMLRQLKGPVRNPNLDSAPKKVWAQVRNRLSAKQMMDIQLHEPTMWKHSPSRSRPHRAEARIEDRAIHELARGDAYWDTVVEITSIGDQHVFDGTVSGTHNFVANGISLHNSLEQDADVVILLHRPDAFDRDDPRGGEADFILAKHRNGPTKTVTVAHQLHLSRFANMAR

[15] = target: T6, Protein RecA (Mycobacterium tuberculosis, UniProt P9WHJ3); assay: Fluorescence Cell-Free Homogeneous Dose Retest to Identify Inhibitors of RecA-Intein Splicing Activity. [Related pubchem assays (depositor defined):AID2097, AID2223, AID489010, AID492950]; type: functional
T6 sequence (P9WHJ3 whole entry): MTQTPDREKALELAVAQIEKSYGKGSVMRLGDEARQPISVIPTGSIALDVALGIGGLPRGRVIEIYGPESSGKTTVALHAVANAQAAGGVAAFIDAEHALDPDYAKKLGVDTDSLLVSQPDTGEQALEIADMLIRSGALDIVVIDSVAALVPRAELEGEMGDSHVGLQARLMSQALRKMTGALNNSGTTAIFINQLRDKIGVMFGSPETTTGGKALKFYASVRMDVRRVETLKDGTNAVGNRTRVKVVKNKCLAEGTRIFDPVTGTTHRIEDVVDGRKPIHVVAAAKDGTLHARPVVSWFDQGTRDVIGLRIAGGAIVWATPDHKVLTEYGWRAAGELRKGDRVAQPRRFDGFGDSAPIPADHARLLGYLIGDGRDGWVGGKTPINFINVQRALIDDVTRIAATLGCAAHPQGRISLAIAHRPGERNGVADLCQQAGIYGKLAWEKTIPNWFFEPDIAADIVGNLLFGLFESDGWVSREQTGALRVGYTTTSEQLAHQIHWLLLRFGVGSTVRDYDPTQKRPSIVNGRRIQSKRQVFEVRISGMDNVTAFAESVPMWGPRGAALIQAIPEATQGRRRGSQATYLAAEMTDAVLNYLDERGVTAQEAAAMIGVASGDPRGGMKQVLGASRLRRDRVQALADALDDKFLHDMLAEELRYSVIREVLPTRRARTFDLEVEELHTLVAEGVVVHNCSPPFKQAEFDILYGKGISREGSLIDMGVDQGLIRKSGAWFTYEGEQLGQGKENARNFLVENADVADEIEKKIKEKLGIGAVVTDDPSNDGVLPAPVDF

T2 sequence (P11940 whole entry): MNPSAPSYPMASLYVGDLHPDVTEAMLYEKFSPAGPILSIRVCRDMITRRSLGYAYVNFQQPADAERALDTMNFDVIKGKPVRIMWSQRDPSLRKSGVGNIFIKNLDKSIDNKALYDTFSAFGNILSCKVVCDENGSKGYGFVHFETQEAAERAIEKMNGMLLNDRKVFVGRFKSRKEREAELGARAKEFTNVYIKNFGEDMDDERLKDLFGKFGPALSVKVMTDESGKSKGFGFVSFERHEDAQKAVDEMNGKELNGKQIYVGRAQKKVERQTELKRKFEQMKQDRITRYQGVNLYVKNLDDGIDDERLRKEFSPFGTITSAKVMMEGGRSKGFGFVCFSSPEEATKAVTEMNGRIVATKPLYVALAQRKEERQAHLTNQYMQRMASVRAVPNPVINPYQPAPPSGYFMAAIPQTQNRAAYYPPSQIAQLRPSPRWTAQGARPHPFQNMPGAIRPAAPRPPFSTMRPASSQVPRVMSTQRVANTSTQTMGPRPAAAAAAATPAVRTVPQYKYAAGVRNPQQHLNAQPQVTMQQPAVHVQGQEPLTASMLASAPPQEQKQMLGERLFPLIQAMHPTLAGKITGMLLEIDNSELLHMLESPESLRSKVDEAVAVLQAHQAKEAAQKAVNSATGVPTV
Chain of Large T antigen (P03070 whole entry): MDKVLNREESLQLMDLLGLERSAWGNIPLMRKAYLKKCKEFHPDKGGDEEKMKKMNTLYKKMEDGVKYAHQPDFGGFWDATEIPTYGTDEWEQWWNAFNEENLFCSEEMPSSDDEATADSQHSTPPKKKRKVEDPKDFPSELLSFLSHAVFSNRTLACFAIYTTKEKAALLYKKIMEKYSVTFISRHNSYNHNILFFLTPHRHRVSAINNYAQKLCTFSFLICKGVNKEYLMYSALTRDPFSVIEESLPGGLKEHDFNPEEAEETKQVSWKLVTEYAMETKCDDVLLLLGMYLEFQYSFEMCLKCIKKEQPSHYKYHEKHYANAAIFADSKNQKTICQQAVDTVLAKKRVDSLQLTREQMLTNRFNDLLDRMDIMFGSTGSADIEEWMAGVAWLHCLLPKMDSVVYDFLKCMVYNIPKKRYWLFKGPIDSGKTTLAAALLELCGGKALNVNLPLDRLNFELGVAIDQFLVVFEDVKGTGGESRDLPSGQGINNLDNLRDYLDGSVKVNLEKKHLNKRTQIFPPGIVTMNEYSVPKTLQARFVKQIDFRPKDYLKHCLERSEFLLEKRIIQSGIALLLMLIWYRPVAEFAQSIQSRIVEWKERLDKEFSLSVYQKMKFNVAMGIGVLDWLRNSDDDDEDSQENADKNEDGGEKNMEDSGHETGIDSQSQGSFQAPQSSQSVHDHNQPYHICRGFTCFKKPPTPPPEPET
Chain of Glyceraldehyde-3-phosphate dehydrogenase (P04406 whole entry): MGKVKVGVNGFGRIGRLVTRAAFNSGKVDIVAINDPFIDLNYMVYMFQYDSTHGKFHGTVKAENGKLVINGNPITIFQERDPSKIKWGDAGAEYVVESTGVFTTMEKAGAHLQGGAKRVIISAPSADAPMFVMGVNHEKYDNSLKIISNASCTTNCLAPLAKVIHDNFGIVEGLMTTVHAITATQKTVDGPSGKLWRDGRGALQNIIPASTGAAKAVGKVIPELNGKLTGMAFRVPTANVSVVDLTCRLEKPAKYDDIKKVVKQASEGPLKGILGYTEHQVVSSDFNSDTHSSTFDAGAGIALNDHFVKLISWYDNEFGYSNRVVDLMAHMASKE
Chain of Cytochrome P450 2C19 (P33261 whole entry): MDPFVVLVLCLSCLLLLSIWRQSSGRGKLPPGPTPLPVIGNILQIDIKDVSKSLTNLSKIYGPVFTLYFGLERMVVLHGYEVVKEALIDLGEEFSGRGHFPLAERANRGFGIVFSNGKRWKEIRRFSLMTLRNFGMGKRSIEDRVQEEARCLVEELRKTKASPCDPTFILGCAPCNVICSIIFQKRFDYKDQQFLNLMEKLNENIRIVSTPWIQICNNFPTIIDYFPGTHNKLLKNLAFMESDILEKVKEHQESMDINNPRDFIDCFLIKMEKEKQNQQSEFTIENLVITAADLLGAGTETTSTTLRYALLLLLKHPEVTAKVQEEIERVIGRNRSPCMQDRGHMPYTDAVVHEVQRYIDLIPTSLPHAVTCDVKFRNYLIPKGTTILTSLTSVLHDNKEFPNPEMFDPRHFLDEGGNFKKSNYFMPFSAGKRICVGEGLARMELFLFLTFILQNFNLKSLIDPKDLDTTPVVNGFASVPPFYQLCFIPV
Chain of Induced myeloid leukemia cell differentiation protein Mcl-1 (Q07820 whole entry): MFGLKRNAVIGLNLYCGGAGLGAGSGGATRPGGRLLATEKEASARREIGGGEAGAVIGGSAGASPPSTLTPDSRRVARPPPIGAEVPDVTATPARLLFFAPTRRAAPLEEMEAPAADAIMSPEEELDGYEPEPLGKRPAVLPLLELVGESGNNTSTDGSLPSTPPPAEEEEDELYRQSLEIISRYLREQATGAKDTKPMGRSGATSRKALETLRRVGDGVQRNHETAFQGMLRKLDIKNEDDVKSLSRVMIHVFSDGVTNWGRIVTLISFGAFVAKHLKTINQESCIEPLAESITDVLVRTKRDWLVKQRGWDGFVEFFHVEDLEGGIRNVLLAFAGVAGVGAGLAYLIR

Cc1ccc(NC(=O)Cn2nc(C)c3ccccc3c2=O)cc1F
IC50 [1]: 14 µM (active)

N#CC1=C2SCN(Cc3ccco3)CN2C(=O)CC1c1ccc(Cl)cc1 (stereo not given)
IC50 [2]: > 100 µM (active)

O=C(CSC1=NCCS1)Nc1nc2ccccc2s1
IC50 [3]: > 66 µM (inactive)
EC50 [4]: 15 µM (active)
EC50 [5]: 12.5 µM (active)
IC50 [6]: > 66 µM (inactive)
EC50 [7]: 9.16 µM (active)

Cc1nc(N)sc1-c1csc(Nc2ncccn2)n1
IC50 [8]: 3.69 µM (active)

NC(=NOC(=O)CSc1ccccc1)c1ccc([N+](=O)[O-])cc1
IC50 [3]: > 66 µM (inactive)
EC50 [4]: 11.5 µM (active)
EC50 [5]: 9.44 µM (active)
IC50 [6]: > 66 µM (inactive)
EC50 [7]: > 120 µM (not active)

O=C(O)/C=C/C(=O)Nc1ccc2c(c1)C(=O)c1ccccc1C2=O
IC50 [9]: > 100 µM (not active)

Cc1ccc(Nc2cnn(C34CC5CC(CC(CC(=O)O)(C5)C3)C4)c(=O)c2Cl)c(Cl)c1
IC50 [1]: 24.4 µM (active)

Cc1cc(NC(=O)CN2CCN(c3ccc(O)cc3)CC2)no1
EC50 [10]: 31.9 µM (active)
IC50 [2]: 9.24 µM (active)

COc1ccc(N2CCN(C3=C(Cl)C(=O)N(c4ccc(C(F)(F)F)cc4)C3=O)CC2)cc1
IC50 [9]: > 12.5 µM (inconclusive)

CC(C)Sc1nc(-c2ccccc2)cc(=O)[nH]1
IC50 [1]: 28.3 µM (active)

Cc1ccc(C)c(NC(=O)CSc2ncnc3nc[nH]c23)c1
IC50 [1]: 50.8 µM (active)

COc1ccc(C2C(C#N)=C(N)OC3=C2C(=O)CC(C)(C)C3)c([N+](=O)[O-])c1OC (stereo not given)
IC50 [3]: > 66 µM (inactive)
EC50 [11]: > 300 µM (not active)
AC50 [12]: 14.1 µM (inconclusive)
IC50 [6]: > 66 µM (inactive)
EC50 [13]: > 300 µM (not active)

CCCc1n[nH]c2c1C(CCc1ccccc1)C(C#N)=C(N)O2 (stereo not given)
AC50 [14]: 6.33 µM (active)
EC50 [15]: 7.93 µM (active)
IC50 [1]: 55.7 µM (active)

COc1cccc(C(=O)Nc2ccc3c(c2)n(C)c(=O)n3C)c1
IC50 [2]: > 100 µM (active)

Cc1ccc(C(=O)C2CCN(CC(=O)Nc3ccc(N(C)C)cc3)CC2)cc1
IC50 [2]: 14.5 µM (active)

O=C(NCc1ccco1)C(=O)c1cn(CC(=O)N2CCCC2)c2ccccc12
IC50 [1]: 73.3 µM (active)

COc1cc(NS(=O)(=O)c2ccc(NC(=O)CSC3=NCCS3)cc2)nc(OC)n1
IC50 [1]: 2.12 µM (active)

COc1ccc(N2CCN(C3=C(Cl)C(=O)N(c4ccnc(Cl)c4)C3=O)CC2)cc1
IC50 [9]: > 50 µM (inconclusive)

NC(=O)N/N=C/c1c(Sc2nnnn2-c2ccccc2)nc2ccccn2c1=O
IC50 [2]: 60.5 µM (active)

O=C(O)c1cccc(Cn2c(Cl)c(/C=N/NC(=O)c3ccccc3)sc2=O)c1
IC50 [1]: 20.8 µM (active)

CCc1c(O)nc(SCC(=O)Nc2ccccc2)n(C(C)CC)c1=O (stereo not given)
IC50 [3]: > 66 µM (inactive)
IC50 [1]: 17.8 µM (active)
IC50 [6]: > 66 µM (inactive)

O=C(O)CN1C(=O)S/C(=C\c2ccc(O)cc2)C1=O
IC50 [9]: > 100 µM (not active)

O=C1c2c(O)cc(O)cc2O[C@H](c2ccc(O)c(O)c2)[C@H]1O [(+)-TAXIFOLIN]
IC50 [2]: 32 µM (active)
